Measured values: ChEMBL document CHEMBL1125177, “Pseudopeptide analogues of substance P and leucine enkephalinamide containing the psi (CH2O) modification: synthesis and biological activity” (J Med Chem, 1991)
Each block holds one compound with its values, some of them ahead of it. Active and inactive are the calls of the source. The rule behind the calls is not given here. Starred links: 1 amine or outer side, 2 acyl side, 3 side chain; linkers in the order of their positions; H or OH if unused. Non-standard residues stand in square brackets, D forms with d. Residues, ends and D or L forms follow the SMILES beside them. X3 = O=C(CCC(=O)[*:2])[C@H](Cc1ccccc1)N[*:1]; X4 = O=C(C/C=C/[C@H](Cc1ccccc1)N[*:1])[*:2]; X1 = O=C(COC[C@H](Cc1ccccc1)N[*:1])[*:2]; NMeF = CN[C@@H](Cc1ccccc1)C(=O)O; pGlu = O=C1CC[C@@H](C(=O)O)N1; AEA = NCCOCC(=O)O; Ava = NCCCCC(=O)O; Sar = CNCC(=O)O

Experiments:
Mus musculus [1] = organism: Mus musculus; experiment: Relative potency to that of [D-Ala2, Leu5]-enkaphalinamide in mouse vas deferens; format: functional
Cavia porcellus [2] = organism: Cavia porcellus; experiment: Inhibitory effect was measured on guinea pig ileum for maximal contraction; format: functional
Cavia porcellus [3] = organism: Cavia porcellus; experiment: Relative potency to that of [D-Ala2,Leu5]enkephalinamide in guinea pig ileum; format: functional
Mus musculus [4] = organism: Mus musculus; experiment: Inhibitory effect was measured on mouse vas deferens; format: functional
[5] = Ratio of IC50 measured in MVD to that of GPI.; format: functional
Cavia porcellus [6] = organism: Cavia porcellus; experiment: Effective concentration was determined using guinea pig ileum; format: functional
Cavia porcellus [7] = organism: Cavia porcellus; experiment: Relative potency to that of [pGlu6]SP6-11 in guinea pig ileum; format: functional
[8] = target: Delta-type opioid receptor (Rattus norvegicus, UniProt P33533); experiment: Binding affinity to opioid receptor delta was determined in rat brain using [3H]DSTBULET as radioligand; format: tissue-based
Delta-type opioid receptor, sequence (P33533 whole entry): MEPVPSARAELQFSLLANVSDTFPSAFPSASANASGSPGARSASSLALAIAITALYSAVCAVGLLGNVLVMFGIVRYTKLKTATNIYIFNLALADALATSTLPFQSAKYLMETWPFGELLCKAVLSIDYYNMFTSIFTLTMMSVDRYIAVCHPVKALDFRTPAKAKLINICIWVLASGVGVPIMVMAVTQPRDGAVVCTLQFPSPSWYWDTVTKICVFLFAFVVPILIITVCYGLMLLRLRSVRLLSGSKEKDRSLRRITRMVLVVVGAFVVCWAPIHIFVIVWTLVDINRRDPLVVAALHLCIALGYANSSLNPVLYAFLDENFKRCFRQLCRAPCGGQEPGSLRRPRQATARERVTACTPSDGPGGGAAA

[9] = target: T1, Neuromedin-K receptor (Cavia porcellus) (UniProt P30098); experiment: Relative potency as ratio of the EC50 value of analogue to that of [PGlu6]SP6-11 in tachykinin receptor 3 in guinea pig ileum; format: functional, tissue-based
T1 sequence (whole entry): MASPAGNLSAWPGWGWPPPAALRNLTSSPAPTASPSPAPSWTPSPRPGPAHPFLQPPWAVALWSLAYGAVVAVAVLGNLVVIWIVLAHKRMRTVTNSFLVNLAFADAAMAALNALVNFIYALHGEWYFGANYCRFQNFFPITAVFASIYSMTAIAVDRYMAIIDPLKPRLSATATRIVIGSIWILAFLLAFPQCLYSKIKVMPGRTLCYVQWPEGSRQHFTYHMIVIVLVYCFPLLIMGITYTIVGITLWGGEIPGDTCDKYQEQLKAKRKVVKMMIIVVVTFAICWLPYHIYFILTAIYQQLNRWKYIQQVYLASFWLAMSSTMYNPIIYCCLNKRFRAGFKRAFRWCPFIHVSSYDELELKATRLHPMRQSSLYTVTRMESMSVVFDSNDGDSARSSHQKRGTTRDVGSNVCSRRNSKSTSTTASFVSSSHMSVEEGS

Neuromedin-K receptor [10] = target: T2, Neuromedin-K receptor (Cavia porcellus, UniProt P30098); experiment: Effective dose was measured on NK3 receptors of guinea pig ileum for maximal contraction in the presence of 10e-7 M substance P methyl ester.; format: functional, tissue-based
T2 sequence (P30098 whole entry): T1 sequence (whole entry)

[11] = Ratio of NK-1 receptor to that of NK-3 receptor; format: functional
Cavia porcellus [12] = organism: Cavia porcellus; experiment: Effective dose was measured on guinea pig ileum for maximal contraction; format: functional
Substance-P receptor = Substance-P receptor (Cavia porcellus, UniProt P30547); experiment: Effective dose was measured on NK1 receptors of guinea pig ileum for maximal contraction in the presence of 3*10e-7 M atropine; format: functional, tissue-based
Substance-P receptor, sequence (P30547 whole entry): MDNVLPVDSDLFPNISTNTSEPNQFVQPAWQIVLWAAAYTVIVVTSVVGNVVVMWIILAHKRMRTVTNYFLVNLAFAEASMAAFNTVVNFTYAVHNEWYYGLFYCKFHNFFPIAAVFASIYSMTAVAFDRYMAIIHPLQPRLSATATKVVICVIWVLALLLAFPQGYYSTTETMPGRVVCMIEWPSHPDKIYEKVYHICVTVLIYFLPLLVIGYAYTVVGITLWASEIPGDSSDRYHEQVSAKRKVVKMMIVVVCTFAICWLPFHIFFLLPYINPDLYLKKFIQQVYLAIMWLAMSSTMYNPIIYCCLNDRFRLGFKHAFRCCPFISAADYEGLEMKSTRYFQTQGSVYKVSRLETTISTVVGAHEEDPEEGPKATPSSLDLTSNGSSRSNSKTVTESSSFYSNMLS

Rattus norvegicus = organism: Rattus norvegicus; experiment: Inhibitory effect was measured on electrically stimulated rat vas deferens contraction; format: functional
Cavia porcellus [13] = organism: Cavia porcellus; experiment: Relative potency to that of [DAla2,Leu5]enkaphalinamide.; format: functional
Neuromedin-K receptor [14] = target: T2, Neuromedin-K receptor; experiment: Effective dose was measured on NK3 receptors of guinea pig ileum for maximal contraction in the presence of 10e-7 M substance P methyl ester; format: functional, tissue-based
Cavia porcellus [15] = organism: Cavia porcellus; experiment: Relative potency as ratio of the EC50 value of analogue to that of [PGlu6]SP6-11 in achykinin receptor 3 in guinea pig ileum; format: functional
[16] = target: Delta-type opioid receptor (Rattus norvegicus) (UniProt P33533); experiment: It is the ratio of Ki value for delta receptor to that of opioid receptor mu
Delta-type opioid receptor (Rattus norvegicus), sequence (P33533 whole entry): as the sequence (P33533 whole entry) above

Mu-type opioid receptor = Mu-type opioid receptor (Rattus norvegicus, UniProt P33535); experiment: Binding affinity to opioid receptor mu was determined in rat brain using [3H]DAGO as radioligand; format: tissue-based
Mu-type opioid receptor, sequence (P33535 whole entry): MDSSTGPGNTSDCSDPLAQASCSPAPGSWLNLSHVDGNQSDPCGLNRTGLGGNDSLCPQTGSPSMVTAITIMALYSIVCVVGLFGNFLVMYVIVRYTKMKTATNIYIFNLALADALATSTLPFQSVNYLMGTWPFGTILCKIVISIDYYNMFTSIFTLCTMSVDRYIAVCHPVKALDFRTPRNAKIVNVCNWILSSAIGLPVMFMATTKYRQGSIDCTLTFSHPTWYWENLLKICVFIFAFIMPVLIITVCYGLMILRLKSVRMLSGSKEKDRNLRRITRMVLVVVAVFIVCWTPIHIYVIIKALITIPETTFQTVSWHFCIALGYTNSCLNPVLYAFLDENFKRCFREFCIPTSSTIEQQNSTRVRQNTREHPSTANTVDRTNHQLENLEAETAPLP

Mus musculus [17] = organism: Mus musculus; experiment: Inhibitory effect was measured on mouse vas deferens; c = Did not show agonist activity up to 10E-5 M; format: functional
[18] = Ratio of IC50 measured in MVD to that of GPI; c= Did not show agonist activity up to 10E-5 M.; format: functional
Mus musculus [19] = organism: Mus musculus; experiment: Relative potency to that of [D-Ala2, Leu5]-enkaphalinamide in mouse vas deferens; c = Did not show agonist activity up to 10E-5 M; format: functional

Structure (SMILES): CSCC[C@H](NC(=O)[C@H](Cc1ccccc1)NC(=O)CNC(=O)[C@@H](C)NC(=O)[C@@H](N)Cc1ccc(O)cc1)C(N)=O
Relative potency (Mus musculus [1]): 2.8%
IC50 (Cavia porcellus [2]): 29 nM
Relative potency (Cavia porcellus [3]): 1.1%
IC50 (Mus musculus [4]): 4.2 nM
Ratio [5]: 0.14

EC50 (Cavia porcellus [6]): 2 nM
Structure (SMILES): CSCC[C@H](NC(=O)[C@H](CC(C)C)NC(=O)CCC(=O)[C@H](Cc1ccccc1)NC(=O)[C@H](Cc1ccccc1)NC(=O)[C@@H]1CCC(=O)N1)C(N)=O ([pGlu]F[X3]LM-NH2)
Relative potency (Cavia porcellus [7]): 70%

Structure (SMILES): C[C@@H](NC(=O)[C@@H](N)Cc1ccc(O)cc1)C(=O)NCC(=O)N(C)[C@@H](Cc1ccccc1)C(=O)NCCO [DAMGO]
IC50 (Cavia porcellus [2]): 18 nM
IC50 (Mus musculus [4]): 51.5 nM
Ki [8]: 629 nM

Structure (SMILES): CSCC[C@H](NC(=O)[C@H](Cc1ccccc1)NC(=O)CNCCNC(=O)[C@@H](N)Cc1ccc(O)cc1)C(N)=O
Relative potency (Cavia porcellus [3]): 0.3%

EC50 (Cavia porcellus [6]): 2 nM
Structure (SMILES): CSCC[C@H](NC(=O)[C@H](CC(C)C)NC(=O)CC(=O)N[C@H](Cc1ccccc1)NC(=O)[C@H](Cc1ccccc1)NC(=O)[C@@H]1CCC(=O)N1)C(N)=O
Relative potency (Cavia porcellus [7]): 22%

Structure (SMILES): CC(C)C[C@H](NC(=O)[C@H](Cc1ccccc1)NC(=O)CSCCNC(=O)[C@@H](N)Cc1ccc(O)cc1)C(=O)O
Relative potency (Cavia porcellus [3]): <1%

Relative potency [9]: 40%
EC50 (Cavia porcellus [6]): 2 nM
EC50 (Neuromedin-K receptor [10]): 12.5 nM
Ratio [11]: 3.16
EC50 (Cavia porcellus [12]): 4.8 nM
EC50 (Substance-P receptor): 39.6 nM
EC50 (Rattus norvegicus): 2 µM
Structure (SMILES): CSCC[C@H](NC(=O)[C@H](CC(C)C)NC(=O)COC[C@H](Cc1ccccc1)NC(=O)[C@H](Cc1ccccc1)NC(=O)[C@@H]1CCC(=O)N1)C(N)=O ([pGlu]F[X1]LM-NH2)
Relative potency (Cavia porcellus [7]): 25%

Structure (SMILES): N[C@@H](Cc1ccc(O)cc1)C(=O)NC/C=C/CC(=O)N[C@@H](Cc1ccccc1)C(=O)N1CCC[C@H]1C(=O)O
Relative potency (Cavia porcellus [3]): 0.1%

IC50 (Cavia porcellus [2]): 32 nM
IC50 (Mus musculus [4]): 11.8 nM
Structure (SMILES): CC(C)C[C@H](NC(=O)[C@H](Cc1ccccc1)NC(=O)COC[C@@H](C)NC(=O)[C@@H](N)Cc1ccc(O)cc1)C(N)=O
Relative potency (Mus musculus [1]): 1%
Relative potency (Cavia porcellus [13]): 1%
Ratio [5]: 0.37

Structure (SMILES): COC(=O)[C@H](CC(C)C)NC(=O)[C@H](Cc1ccccc1)NC(=O)CNC(=O)C/C=C/[C@@H](N)Cc1ccc(O)cc1
Relative potency (Cavia porcellus [3]): 300%

Structure (SMILES): CC(C)C[C@H](NC(=O)[C@H](Cc1ccccc1)NC(=O)C/N=C(\S)CNC(=O)[C@@H](N)Cc1ccc(O)cc1)C(=O)O
Relative potency (Cavia porcellus [3]): 400%

Relative potency [9]: 100%
Ratio [11]: 0.44
EC50 (Cavia porcellus [12]): 1.2 nM
EC50 (Substance-P receptor): 2.2 nM
EC50 (Rattus norvegicus): 20 µM
EC50 (Neuromedin-K receptor [14]): 5 nM
Structure (SMILES): CSCC[C@H](NC(=O)[C@H](CC(C)C)NC(=O)CNC(=O)[C@H](Cc1ccccc1)NC(=O)[C@H](Cc1ccccc1)NC(=O)[C@@H]1CCC(=O)N1)C(N)=O ([pGlu]FFGLM-NH2)

EC50 (Neuromedin-K receptor [10]): 0.9 nM
Ratio [11]: 670
EC50 (Cavia porcellus [12]): 0.4 nM
EC50 (Substance-P receptor): 600 nM
EC50 (Rattus norvegicus): 20 µM
Structure (SMILES): CSCC[C@H](NC(=O)[C@H](CC(C)C)NC(=O)CNC(=O)[C@H](Cc1ccccc1)N(C)C(=O)[C@H](Cc1ccccc1)NC(=O)[C@@H]1CCC(=O)N1)C(N)=O ([pGlu]F[NMeF]GLM-NH2)
Relative potency (Cavia porcellus [15]): 555%

EC50 (Cavia porcellus [6]): 2 nM
Structure (SMILES): CSCC[C@H](NC(=O)[C@H](CC(C)C)NC(=O)CN(C)C(=O)[C@H](Cc1ccccc1)NC(=O)[C@H](Cc1ccccc1)NC(=O)[C@@H]1CCC(=O)N1)C(N)=O ([pGlu]FF[Sar]LM-NH2)
Relative potency (Cavia porcellus [7]): 80%

Structure (SMILES): CC(C)C[C@H](NC(=O)[C@H](Cc1ccccc1)NC(=O)CNC(=O)COC[C@@H](N)Cc1ccc(O)cc1)C(N)=O
Relative potency (Mus musculus [1]): 0.13%
IC50 (Cavia porcellus [2]): 30 nM
Ratio [16]: 2.12
Relative potency (Cavia porcellus [3]): 106%
Relative potency (Cavia porcellus [13]): 1.06%
IC50 (Mus musculus [4]): 92 nM
Ki [8]: 7.78 nM
Ki (Mu-type opioid receptor): 3.69 nM
Ratio [5]: 3.12

Structure (SMILES): CC(C)C[C@H](NC(=O)[C@H](Cc1ccccc1)NC(=O)COCCNC(=O)[C@@H](N)Cc1ccc(O)cc1)C(N)=O (H-Y[AEA]FL-NH2)
IC50 (Mus musculus [17]): Not Active
IC50 (Cavia porcellus [2]): 2300 nM
Ratio [16]: 6.66
Relative potency (Cavia porcellus [3]): 1.4%
Relative potency (Cavia porcellus [13]): 0.014%
Ratio [18]: inactive
Ki [8]: 9200 nM
Ki (Mu-type opioid receptor): 1380 nM
Relative potency (Mus musculus [19]): inactive

Structure (SMILES): CSCC[C@H](NC(=O)[C@H](Cc1ccccc1)NC(=O)CN(C)C(=O)CNC(=O)[C@@H](N)Cc1ccc(O)cc1)C(=O)O
Relative potency (Cavia porcellus [3]): 0.1%

Structure (SMILES): CSCC[C@H](NC(=O)[C@H](Cc1ccccc1)NC(=O)CNC(=O)CCC[C@H](N)Cc1ccc(O)cc1)C(N)=O
Relative potency (Cavia porcellus [3]): 3%

Structure (SMILES): CSCC[C@H](NC(=O)[C@H](Cc1ccccc1)NC(=O)CCCCNC(=O)[C@@H](N)Cc1ccc(O)cc1)C(N)=O (H-Y[Ava]FM-NH2)
Relative potency (Cavia porcellus [3]): <0.3%

IC50 (Cavia porcellus [2]): 350 nM
IC50 (Mus musculus [4]): 0.54 nM
Structure (SMILES): CC(C)CC(NC(=O)[C@H](Cc1ccccc1)NC(=O)COC[C@@H](CO)NC(=O)C(N)Cc1ccc(O)cc1)C(=O)N[C@H](C(=O)O)[C@@H](C)O (stereo not given in full)
Relative potency (Mus musculus [1]): 21.8%
Relative potency (Cavia porcellus [13]): 0.09%
Ratio [5]: 0.0015

Structure (SMILES): CC(C)C[C@H](NC(=O)[C@H](Cc1ccccc1)NC(=O)CNC(=O)CSC[C@@H](N)Cc1ccc(O)cc1)C(=O)O
Relative potency (Cavia porcellus [3]): 24.1%

Structure (SMILES): CSCC[C@H](NC(=O)[C@H](Cc1ccccc1)NC(=O)CNC(=O)CNC[C@@H](N)Cc1ccc(O)cc1)C(N)=O
Relative potency (Cavia porcellus [3]): 56%

EC50 (Cavia porcellus [6]): 2 nM
Structure (SMILES): CSCC[C@H](NC(=O)[C@H](CC(C)C)NC(=O)C/C=C/[C@H](Cc1ccccc1)NC(=O)[C@H](Cc1ccccc1)NC(=O)[C@@H]1CCC(=O)N1)C(N)=O ([pGlu]F[X4]LM-NH2)
Relative potency (Cavia porcellus [7]): 24%

Structure (SMILES): CSCC[C@H](NC(=O)[C@H](Cc1ccccc1)NC(=O)CNC(=O)CN(C)C(=O)[C@@H](N)Cc1ccc(O)cc1)C(=O)O
Relative potency (Cavia porcellus [3]): <2.1%
